# According to US20260109678A1, “SUBSTITUTED PHENOTHIAZINES AS FERROPTOSIS INHIBITORS” (Universiteit Antwerpen, priority 2022, published 2026):
# Counter-ions that a name gives are not always drawn.
# Key:
# [1] = Kinetic solubility (turbidimetric method); type: physicochemical; details: aqueous buffer, kinetic from dmso stock, PBS buffer pH 7.4, 2 hours at 37° C., read-out: Kin. solubility
# [2] = Fluorescence-enabled inhibited autoxidation (FENIX) assay; type: biochemical; details: RTA 2 μM, liposomes 1 mM; for Logkinh: FENIX assay; for kinh (10^4 M^−1s^−1) ± SD: inhibition rate constant, STY-BODIPY 1 μM, DTUN initiator, 37° C.
# Protocol: Unless otherwise stated, laboratory reagent grade solvents were used. Reagents were obtained from various commercial sources and were used without any prior purification. L-α-phosphatidylcholine (Egg, Chicken), powder was purchased from Merck Life Science B.V.. DTUN and STY-BODIPY were synthesized according to methods described in Shah et al. (2019) Cell Chem. Biol. 26, 1594-1607. Fluorescence was measured using the UV/vis spectrophotometer Synergy MX, Biotek with Gen5.
# In order to quantify radical trapping antioxidant activity in phospholipid bilayers to a clear bottom black-walled 96-well plate for fluorescence-base assays (Invitrogen by Thermo Fisher Scientific) was added 250 μL of a solution containing liposomes (1 mM), styrene-conjugated BODIPY (STY-BODIPY, 1 μM), and the respective radical trapping antioxidant (RTA, 2 μM). The solutions were made in larger volumes in Eppendorfs, pre-mixed and 250 μL aliquot was transferred to each well. The plate was incubated for 10 minutes at 37° C. in the BioTek SynergyMx plate reader, followed by a fast-mixing protocol for 5 minutes. The plate was ejected from the plate reader and autoxidation was initiated by the addition of a 50 μL aliquot of (E)-1,2-bis((2-methyldecan-2-yl)oxy)diazene (DTUN, 0.2 mM in EtOH/PBS 3/47, v/v), followed by another mixing protocol for 5 minutes. Data were acquired by excitation probes at 488 nm and emission was measured at 518 nm (read intervals 1.0 min). Kinetic read parameters: (i) optic position: bottom, (ii) gain: 80, (iii) bandwidth: 9.0. The results of the FENIX assay are presented in Table 2 as inhibition rate constants (kinh), logkinh and stoichiometries (n) of tested compounds.
SMILES,solubility at 2 h [1] [µM],Logkinh [2],kinh (10^4 M^−1s^−1) ± SD [2]
"O=Cc1ccc2c(c1)Sc1ccccc1N2 [CPD-037, 10H-phenothiazine-3-carbaldehyde]",12.5 to 50,,
"O=C(NCCN1CCNCC1)c1cc(NC2CCCCC2)c2c(c1)Sc1ccccc1N2 [CPD-030, 1-(Cyclohexylamino)-N-(2-(piperazin-1-yl)ethyl)-10H-phenothiazine-3-carboxamide tetrahydrochloride]",,2.13 ± 0.13,4.24 ± 0.05 10^4 M^−1s^−1
c1ccc2c(c1)Nc1ccc(CNCCN3CCOCC3)cc1S2 [CPD-038],,3.77 ± 0.16,1.03 ± 0.01 10^4 M^−1s^−1
"O=C(c1cc(NCc2ccc(F)cc2)c2c(c1)Sc1ccccc1N2)N1CCOCC1 [CPD-012, (1-((4-Fluorobenzyl)amino)-10H-phenothiazin-3-yl)(morpholino)methanone]",,2.02 ± 0.12,2.58 ± 0.45 10^4 M^−1s^−1
"NCCNC(=O)c1cc(NCc2ccc(C(F)(F)F)cc2)c2c(c1)Sc1ccccc1N2 [CPD-025, N-(2-aminoethyl)-1-((4-(trifluoromethyl)benzyl)amino)-10H-phenothiazine-3-carboxamide trihydrochloride]",,1.78 ± 0.02,3.75 ± 0.50 10^4 M^−1s^−1
"O=C(c1cc(NCc2ccc(F)cc2)c2c(c1)Sc1ccccc1N2)N1CCNCC1 [CPD-027, (1-((4-Fluorobenzyl)amino)-10H-phenothiazin-3-yl)(piperazin-1-yl)methanone trihydrochloride]",,2.13 ± 0.15,2.52 ± 0.43 10^4 M^−1s^−1
